Assay results as given in ChEMBL document CHEMBL1201862, “PubChem BioAssay data set” (2004).
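48-hour exposure; five concentrations; linearly interpolated endpoints. Abbreviation: GI50, concentration required for 50% inhibition of growth.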 The source made the active and inactive calls. No stated cut-off is given here; in the data, active = GI50 up to about 1.1 µM and inactive = higher.

Key:
Assay in all cases: NCI anticancer screen, dose series, 48 h
RPMI-8226 = system: RPMI-8226
M14 = system: M14
OVCAR-5 = system: OVCAR-5
TK-10 = system: TK-10
KM12 = system: KM12
HCC 2998 = system: HCC 2998
HL-60 = system: HL-60
UO-31 = system: UO-31
SK-MEL-2 = system: SK-MEL-2
SK-MEL-28 = system: SK-MEL-28
A549 = system: A549
U-251 = system: U-251
NCI-H522 = system: NCI-H522
Malme-3M = system: Malme-3M
OVCAR-8 = system: OVCAR-8
HOP-62 = system: HOP-62
OVCAR-3 = system: OVCAR-3
COLO 205 = system: COLO 205
SK-MEL-5 = system: SK-MEL-5

| SMILES | GI50 (RPMI-8226) | GI50 (M14) | GI50 (OVCAR-5) | GI50 (TK-10) | GI50 (KM12) | GI50 (HCC 2998) | GI50 (HL-60) | GI50 (UO-31) | GI50 (SK-MEL-2) | GI50 (SK-MEL-28) | GI50 (A549) | GI50 (U-251) | GI50 (NCI-H522) | GI50 (Malme-3M) | GI50 (OVCAR-8) | GI50 (HOP-62) | GI50 (OVCAR-3) | GI50 (COLO 205) | GI50 (SK-MEL-5) |
| --- | --- | --- | --- | --- | --- | --- | --- | --- | --- | --- | --- | --- | --- | --- | --- | --- | --- | --- | --- |
| COc1ccc([C@H]2[C@@H]3CCc4ccccc4C3=NN2C(N)=S)cc1OC | 37.9 µM (inactive) | 67.1 µM (inactive) | > 100 µM (inactive) | > 100 µM (inactive) | 47.9 µM (inactive) | > 100 µM (inactive) | 22.9 µM (inactive) | 36.1 µM (inactive) | 50 µM (inactive) | 78 µM (inactive) | 41.9 µM (inactive) | 60.3 µM (inactive) | 15.9 µM (inactive) | 85.3 µM (inactive) | 74.3 µM (inactive) | 97.7 µM (inactive) | 51.4 µM (inactive) |  |  |
| COc1ccc(-c2cc3ccccc3[nH]c2=O)cc1OC | > 100 µM (inactive) | > 100 µM (inactive) | > 100 µM (inactive) | > 100 µM (inactive) | > 100 µM (inactive) | > 100 µM (inactive) | > 100 µM (inactive) | > 100 µM (inactive) | > 100 µM (inactive) | > 100 µM (inactive) | > 100 µM (inactive) | 71.6 µM (inactive) | > 100 µM (inactive) | > 100 µM (inactive) | > 100 µM (inactive) | > 100 µM (inactive) |  | > 100 µM (inactive) |  |
| CC(C)C(NCc1c2ccccc2[n+](C)c2ccccc12)C(=O)O (stereo unspecified) | 0.603 µM (active) | 4.49 µM (inactive) | 18.9 µM (inactive) | 7.91 µM (inactive) | 4.91 µM (inactive) | 14.8 µM (inactive) | 1.97 µM (inactive) | 8.07 µM (inactive) | 6.04 µM (inactive) | 12.9 µM (inactive) | 8.22 µM (inactive) | 7.28 µM (inactive) | 2.15 µM (inactive) | 6.62 µM (inactive) | 3.78 µM (inactive) | 13.8 µM (inactive) | 5.81 µM (inactive) | 2.34 µM (inactive) | 3.31 µM (inactive) |
| COc1cc2c(cc1OC)[C@@H](Nc1ccc(F)cc1)C1COC(=O)[C@@H]1C2c1cc(OC)c(O)c(OC)c1 (stereo partly specified) | 0.16 µM (active) | 1.24 µM (inactive) | 3.33 µM (inactive) | 7.18 µM (inactive) | 2.77 µM (inactive) | 2.65 µM (inactive) | 0.0982 µM (active) | 2.14 µM (inactive) | 5.42 µM (inactive) | 21.9 µM (inactive) | 0.0484 µM (active) | 0.493 µM (active) | 2.2 µM (inactive) | 3.07 µM (inactive) | 1.99 µM (inactive) | 0.128 µM (active) | 23.4 µM (inactive) | 12.5 µM (inactive) | 1.93 µM (inactive) |
| CCC1(Cl)C(=O)NC(=O)N(C2CC(O)C(CO)O2)C1N=[N+]=[N-] (stereo unspecified) | > 100 µM (inactive) | > 100 µM (inactive) | > 100 µM (inactive) | > 100 µM (inactive) |  | > 100 µM (inactive) | > 100 µM (inactive) | > 100 µM (inactive) | > 100 µM (inactive) | > 100 µM (inactive) | > 100 µM (inactive) | > 100 µM (inactive) | > 100 µM (inactive) | > 100 µM (inactive) | > 100 µM (inactive) | > 100 µM (inactive) | > 100 µM (inactive) | > 100 µM (inactive) | > 100 µM (inactive) |
| N#CC(N)(C(=O)C(=O)NCCCNC(=O)C(=O)C(N)(C#N)c1ccc(Cl)cc1)c1ccc(Cl)cc1 (stereo unspecified) | > 100 µM (inactive) | > 100 µM (inactive) | > 100 µM (inactive) | > 100 µM (inactive) | > 100 µM (inactive) | > 100 µM (inactive) | 54.7 µM (inactive) | > 100 µM (inactive) | > 100 µM (inactive) | > 100 µM (inactive) | > 100 µM (inactive) | > 100 µM (inactive) | > 100 µM (inactive) | > 100 µM (inactive) | > 100 µM (inactive) | > 100 µM (inactive) | > 100 µM (inactive) | > 100 µM (inactive) | > 100 µM (inactive) |
| CS/C(c1ccccc1)=[N+](\[O-])Cc1ccccc1 | 27.1 µM (inactive) | > 100 µM (inactive) | > 100 µM (inactive) | > 100 µM (inactive) | > 100 µM (inactive) | > 100 µM (inactive) | > 100 µM (inactive) | > 100 µM (inactive) | > 100 µM (inactive) | > 100 µM (inactive) | > 100 µM (inactive) | > 100 µM (inactive) | 90.2 µM (inactive) | > 100 µM (inactive) | > 100 µM (inactive) | > 100 µM (inactive) | > 100 µM (inactive) | > 100 µM (inactive) | > 100 µM (inactive) |
| Cc1nc(Cl)nc(Cl)c1C | > 100 µM (inactive) | > 100 µM (inactive) | > 100 µM (inactive) | > 100 µM (inactive) | > 100 µM (inactive) | > 100 µM (inactive) | > 100 µM (inactive) | > 100 µM (inactive) | > 100 µM (inactive) | > 100 µM (inactive) | > 100 µM (inactive) | > 100 µM (inactive) | > 100 µM (inactive) | > 100 µM (inactive) | > 100 µM (inactive) | > 100 µM (inactive) | > 100 µM (inactive) |  | > 100 µM (inactive) |
